Legend:
SMMC-7721 = assay: Cytotoxicity against human SMMC7721 cells after 72 hrs by MTT assay; conditions: SMMC-7721, 72 h
HT-29 = assay: Cytotoxicity against human HT-29 cells after 72 hrs by MTT assay; conditions: HT-29, 72 h
[1] = Cytotoxicity against human H460 cells after 72 hrs by MTT assay; conditions: NCI-H460, 72 h
MKN-45 = assay: Cytotoxicity against human MKN45 cells after 72 hrs by MTT assay; conditions: MKN-45, 72 h
[2] = Cytotoxicity against human U87MG cells after 72 hrs by MTT assay; assay type: functional, cell-based, U-87MG ATCC; conditions: U-87 MG

For `COc1ccc(-c2cc(C(=O)Nc3ccc(Oc4ccnc5cc(OCCCN6CCOCC6)c(OC)cc45)c(F)c3)c3ccccc3n2)cc1`, the IC50 (SMMC-7721) was 1180 nM, the IC50 (HT-29) was 3190 nM and the IC50 [1] was 750 nM. The IC50 (MKN-45) was 160 nM.

Work on `COc1cc2c(Oc3ccc(NC(=O)c4cc(-c5ccccc5)nc5ccc(F)cc45)cc3F)ccnc2cc1OCCCN1CCCC1` yielded an IC50 (HT-29) of 160 nM, an IC50 [2] of 960 nM and an IC50 [1] of 90 nM. The IC50 (MKN-45) was 110 nM.

Molecule `COc1cc2c(Oc3ccc(NC(=O)c4cc(-c5ccc(C)cc5)nc5ccc(F)cc45)cc3F)ccnc2cc1OCCCN1CCC(C)CC1` has an IC50 (HT-29) of 420 nM, an IC50 [2] of 2000 nM and an IC50 [1] of 480 nM. For the same molecule, the IC50 (MKN-45) was 260 nM.

For `COc1cc2c(Oc3ccc(NC(=O)c4cc(-c5ccccc5)nc5ccc(F)cc45)cc3F)ccnc2cc1OCCCN1CCCCC1`, the IC50 (HT-29) was 120 nM, the IC50 [2] was 690 nM and the IC50 [1] was 32 nM. The IC50 (MKN-45) was 30 nM.

Work on `COc1cc2c(Oc3ccc(NC(=O)c4cc(-c5cccc(Cl)c5)nc5ccccc45)cc3F)ccnc2cc1OCCCN1CCOCC1` yielded an IC50 (SMMC-7721) of 320 nM, an IC50 (HT-29) of 1080 nM and an IC50 [2] of 1470 nM. It also gave an IC50 [1] of 80 nM and an IC50 (MKN-45) of 35 nM.

For `COc1ccc(-c2cc(C(=O)Nc3ccc(Oc4ccnc5cc(OCCCN6CCCCC6)c(OC)cc45)c(F)c3)c3ccccc3n2)cc1`, the IC50 (SMMC-7721) was 210 nM, the IC50 (HT-29) was 690 nM and the IC50 [2] was 1360 nM. For the same molecule, the IC50 [1] was 290 nM and the IC50 (MKN-45) was 210 nM.

Molecule `COc1cc2c(Oc3ccc(NC(=O)c4cc(-c5ccc(Cl)cc5Cl)nc5ccc(F)cc45)cc3F)ccnc2cc1OCCCN1CCCCC1` has an IC50 (HT-29) of 530 nM, an IC50 [2] of 1040 nM and an IC50 [1] of 310 nM. For the same molecule, the IC50 (MKN-45) was 250 nM.

`COc1cc2c(Oc3ccc(NC(=O)c4cc(-c5ccc(Cl)c(Cl)c5)nc5ccccc45)cc3F)ccnc2cc1OCCCN1CCCC1` gave an IC50 (SMMC-7721) of 340 nM, an IC50 (HT-29) of 1960 nM and an IC50 [1] of 400 nM. The IC50 (MKN-45) was 170 nM.

Molecule `COc1cc2c(Oc3ccc(NC(=O)c4cc(-c5ccc(F)cc5)nc5ccccc45)cc3F)ccnc2cc1OCCCN1CCCCC1` has an IC50 (SMMC-7721) of 74 nM, an IC50 (HT-29) of 130 nM and an IC50 [2] of 980 nM. The IC50 [1] was 21 nM and the IC50 (MKN-45) was 28 nM.

With `COc1cc2c(Oc3ccc(NC(=O)c4cc(-c5cccc(Cl)c5)nc5ccccc45)cc3F)ccnc2cc1OCCCN1CCCCC1` the IC50 (SMMC-7721) was 30 nM, the IC50 (HT-29) was 62 nM and the IC50 [2] was 150 nM. The IC50 [1] was 11 nM and the IC50 (MKN-45) was 11 nM.

`COc1cccc(-c2cc(C(=O)Nc3ccc(Oc4ccnc5cc(OCCCN6CCCCC6)c(OC)cc45)c(F)c3)c3cc(F)ccc3n2)c1` showed an IC50 (HT-29) of 2500 nM, an IC50 [2] of 1610 nM and an IC50 [1] of 1000 nM. For the same molecule, the IC50 (MKN-45) was 690 nM.

Molecule `COc1cc2c(Oc3ccc(NC(=O)c4cc(-c5ccc(C)cc5)nc5ccc(F)cc45)cc3F)ccnc2cc1OCCCN1CCOCC1` has an IC50 (HT-29) of 390 nM, an IC50 [2] of 820 nM and an IC50 [1] of 440 nM. For the same molecule, the IC50 (MKN-45) was 320 nM.

Molecule `COc1cc2c(Oc3ccc(NC(=O)c4cc(-c5ccc(C)cc5)nc5ccccc45)cc3F)ccnc2cc1OCCCN1CCOCC1` has an IC50 (SMMC-7721) of 1520 nM, an IC50 (HT-29) of 3560 nM and an IC50 [1] of 1100 nM. For the same molecule, the IC50 (MKN-45) was 830 nM.

`COc1cc2c(Oc3ccc(NC(=O)c4cc(-c5ccc(C)cc5)nc5ccccc45)cc3F)ccnc2cc1OCCCN1CCC(C)CC1` gave an IC50 (SMMC-7721) of 1260 nM, an IC50 (HT-29) of 3150 nM and an IC50 [1] of 880 nM. For the same molecule, the IC50 (MKN-45) was 770 nM.

Work on `COc1cc2c(Oc3ccc(NC(=O)c4cc(-c5cccc(Cl)c5)nc5ccc(F)cc45)cc3F)ccnc2cc1OCCCN1CCCC1` yielded an IC50 (HT-29) of 670 nM, an IC50 [2] of 990 nM and an IC50 [1] of 72 nM. The IC50 (MKN-45) was 67 nM.

With `COc1cccc(-c2cc(C(=O)Nc3ccc(Oc4ccnc5cc(OCCCN6CCC(C)CC6)c(OC)cc45)c(F)c3)c3cc(F)ccc3n2)c1` the IC50 (HT-29) was 1210 nM, the IC50 [2] was 840 nM and the IC50 [1] was 840 nM. The IC50 (MKN-45) was 730 nM.

For `COc1cc2c(Oc3ccc(NC(=O)c4cc(-c5ccc(F)cc5)nc5ccc(F)cc45)cc3F)ccnc2cc1OCCCN1CCOCC1`, the IC50 (HT-29) was 250 nM, the IC50 [2] was 2150 nM and the IC50 [1] was 27 nM. For the same molecule, the IC50 (MKN-45) was 51 nM.

Work on `COc1cc2c(Oc3ccc(NC(=O)c4cc(-c5ccccc5)nc5ccccc45)cc3F)ccnc2cc1OCCCN1CCOCC1` yielded an IC50 (SMMC-7721) of 330 nM, an IC50 (HT-29) of 1520 nM and an IC50 [2] of 1140 nM. For the same molecule, the IC50 [1] was 190 nM and the IC50 (MKN-45) was 91 nM.

`COc1cc2c(Oc3ccc(NC(=O)c4cc(-c5ccccc5)nc5ccccc45)cc3F)ccnc2cc1OCCCN1CCC(C)CC1` gave an IC50 (SMMC-7721) of 160 nM, an IC50 (HT-29) of 120 nM and an IC50 [2] of 920 nM. It also gave an IC50 [1] of 68 nM and an IC50 (MKN-45) of 19 nM.

In the case of `COc1cccc(-c2cc(C(=O)Nc3ccc(Oc4ccnc5cc(OCCCN6CCCC6)c(OC)cc45)c(F)c3)c3ccccc3n2)c1`, the IC50 (SMMC-7721) is reported as 790 nM, the IC50 (HT-29) is reported as 1020 nM and the IC50 [1] is reported as 290 nM. For the same molecule, the IC50 (MKN-45) was 430 nM.

For `COc1cc2c(Oc3ccc(NC(=O)c4cc(-c5cccc(Cl)c5)nc5ccc(F)cc45)cc3F)ccnc2cc1OCCCN1CCOCC1`, the IC50 (HT-29) was 1200 nM, the IC50 [2] was 1060 nM and the IC50 [1] was 68 nM. It also gave an IC50 (MKN-45) of 60 nM.

In the case of `COc1cccc(-c2cc(C(=O)Nc3ccc(Oc4ccnc5cc(OCCCN6CCOCC6)c(OC)cc45)c(F)c3)c3ccccc3n2)c1`, the IC50 (SMMC-7721) is reported as 1130 nM, the IC50 (HT-29) is reported as 3050 nM and the IC50 [1] is reported as 560 nM. It also gave an IC50 (MKN-45) of 110 nM.

In the case of `COc1ccc(-c2cc(C(=O)Nc3ccc(Oc4ccnc5cc(OCCCN6CCCCC6)c(OC)cc45)c(F)c3)c3cc(F)ccc3n2)cc1`, the IC50 (HT-29) is reported as 600 nM, the IC50 [2] is reported as 1100 nM and the IC50 [1] is reported as 240 nM. For the same molecule, the IC50 (MKN-45) was 260 nM.

For `COc1cc2c(Oc3ccc(NC(=O)c4cc(-c5ccc(C)cc5)nc5ccccc45)cc3F)ccnc2cc1OCCCN1CCCC1`, the IC50 (SMMC-7721) was 520 nM, the IC50 (HT-29) was 850 nM and the IC50 [1] was 240 nM. The IC50 (MKN-45) was 300 nM.

With `COc1cc2c(Oc3ccc(NC(=O)c4cc(-c5cccc(Cl)c5)nc5ccc(F)cc45)cc3F)ccnc2cc1OCCCN1CCC(C)CC1` the IC50 (HT-29) was 92 nM, the IC50 [2] was 110 nM and the IC50 [1] was 60 nM. It also gave an IC50 (MKN-45) of 10 nM.

`COc1ccc(-c2cc(C(=O)Nc3ccc(Oc4ccnc5cc(OCCCN6CCCC6)c(OC)cc45)c(F)c3)c3cc(F)ccc3n2)cc1` gave an IC50 (HT-29) of 610 nM, an IC50 [2] of 930 nM and an IC50 [1] of 250 nM. The IC50 (MKN-45) was 170 nM.

`COc1cc2c(Oc3ccc(NC(=O)c4cc(-c5ccccc5)nc5ccccc45)cc3F)ccnc2cc1OCCCN1CCCCC1` showed an IC50 (SMMC-7721) of 290 nM, an IC50 (HT-29) of 530 nM and an IC50 [2] of 1490 nM. The IC50 [1] was 110 nM and the IC50 (MKN-45) was 15 nM.

Molecule `COc1cc2c(Oc3ccc(NC(=O)c4cc(-c5cccc(Cl)c5)nc5ccccc45)cc3F)ccnc2cc1OCCCN1CCC(C)CC1` has an IC50 (SMMC-7721) of 80 nM, an IC50 (HT-29) of 100 nM and an IC50 [2] of 580 nM. It also gave an IC50 [1] of 65 nM and an IC50 (MKN-45) of 30 nM.

`COc1cc2c(Oc3ccc(NC(=O)c4cc(-c5ccc(C(F)(F)F)cc5)nc5ccccc45)cc3F)ccnc2cc1OCCCN1CCOCC1` gave an IC50 (SMMC-7721) of 100 nM, an IC50 (HT-29) of 230 nM and an IC50 [2] of 1010 nM. The IC50 [1] was 68 nM and the IC50 (MKN-45) was 12 nM.

With `COc1cc2c(Oc3ccc(NC(=O)c4cc(-c5ccc(C)cc5)nc5ccc(F)cc45)cc3F)ccnc2cc1OCCCN1CCCCC1` the IC50 (HT-29) was 500 nM, the IC50 [2] was 1050 nM and the IC50 [1] was 260 nM. For the same molecule, the IC50 (MKN-45) was 170 nM.

With `COc1cccc(-c2cc(C(=O)Nc3ccc(Oc4ccnc5cc(OCCCN6CCCCC6)c(OC)cc45)c(F)c3)c3ccccc3n2)c1` the IC50 (SMMC-7721) was 380 nM, the IC50 (HT-29) was 1740 nM and the IC50 [1] was 210 nM. The IC50 (MKN-45) was 360 nM.

With `COc1ccc(-c2cc(C(=O)Nc3ccc(Oc4ccnc5cc(OCCCN6CCC(C)CC6)c(OC)cc45)c(F)c3)c3ccccc3n2)cc1` the IC50 (SMMC-7721) was 450 nM, the IC50 (HT-29) was 1110 nM and the IC50 [1] was 110 nM. The IC50 (MKN-45) was 320 nM.

Molecule `COc1cc2c(Oc3ccc(NC(=O)c4cc(-c5ccc(Cl)c(Cl)c5)nc5ccccc45)cc3F)ccnc2cc1OCCCN1CCCCC1` has an IC50 (SMMC-7721) of 770 nM, an IC50 (HT-29) of 1210 nM and an IC50 [1] of 820 nM. For the same molecule, the IC50 (MKN-45) was 730 nM.

Reference: ChEMBL document CHEMBL2390843, “Design, synthesis and antitumour activity of bisquinoline derivatives connected by 4-oxy-3-fluoroaniline moiety” (Eur J Med Chem, 2013)
